Where two headings read alike, the source gives them in different places.
What was measured:
Format in all cases: cell-based
[1] = biological target: AXL (phospho-AXL, Gas6-stimulated A-172 glioblastoma cells) (Homo sapiens (Human), UniProt P30530); experiment: AXL autophosphorylation ELISA in A-172 cells (Example E)
Procedure, shortened: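 Phospho-AXL in lysates was quantified by ELISA, normalised to DMSO (100%) and reference inhibitor (0%) controls. IC50 by 4-parameter logistic fit.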

[2] = biological target: Met (phospho-Met, HGF-stimulated PC-3 prostate cancer cells) (Homo sapiens (Human), UniProt P08581); experiment: Met autophosphorylation ELISA in PC-3 cells (Example F); conditions: cellular activity; Met autophosphorylation ELISA in PC-3 cells; read-out: c-Met IC50
Procedure, shortened: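 Compounds were tested on HGF-stimulated PC-3 cells. After 24 h culture and 3 h serum starvation, cells got compound for 1 h and 100 ng/mL HGF for 10 min, and Met tyrosine phosphorylation was measured by ELISA.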

[3] = biological target: KDR (phospho-KDR, VEGF165-stimulated HUVEC cells) (Homo sapiens (Human), UniProt P35968); experiment: KDR autophosphorylation ELISA in HUVEC cells (Example G); conditions: cellular activity; KDR autophosphorylation ELISA in HUVEC cells
Procedure, shortened: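 IC50 values derive from nonlinear curve fitting of phospho-KDR levels measured by ELISA and interpolated from a phosphoprotein standard. Beforehand, starved HUVECs received compound (0.3% DMSO vehicle) for one hour and were activated with VEGF165 at 100 ng/mL for 5 min.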

[4] = biological target: Mer (phospho-Mer, MERTK-transfected 293A cells) (Homo sapiens (Human), UniProt Q12866); experiment: Mer autophosphorylation ELISA in transient transfected 293A cells (Example H); conditions: cellular activity; Mer autophosphorylation ELISA in transient transfected 293A cells
Procedure, shortened: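 Inhibition of cellular Mer autophosphorylation is determined in 293A cells transiently expressing human MERTK after 1 h compound exposure (8 concentrations, serum-free, 0.3% DMSO). Phospho-Mer in clarified lysates is measured by ELISA, with DMSO and reference-inhibitor wells defining the 100% and 0% activity limits.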

[5] = cellular activity, AXL autophosphorylation ELISA in A-172 cells, read-out: Axl IC50

Met (phospho-Met, HGF-stimulated PC-3 prostate cancer cells), sequence (P08581 25-1390): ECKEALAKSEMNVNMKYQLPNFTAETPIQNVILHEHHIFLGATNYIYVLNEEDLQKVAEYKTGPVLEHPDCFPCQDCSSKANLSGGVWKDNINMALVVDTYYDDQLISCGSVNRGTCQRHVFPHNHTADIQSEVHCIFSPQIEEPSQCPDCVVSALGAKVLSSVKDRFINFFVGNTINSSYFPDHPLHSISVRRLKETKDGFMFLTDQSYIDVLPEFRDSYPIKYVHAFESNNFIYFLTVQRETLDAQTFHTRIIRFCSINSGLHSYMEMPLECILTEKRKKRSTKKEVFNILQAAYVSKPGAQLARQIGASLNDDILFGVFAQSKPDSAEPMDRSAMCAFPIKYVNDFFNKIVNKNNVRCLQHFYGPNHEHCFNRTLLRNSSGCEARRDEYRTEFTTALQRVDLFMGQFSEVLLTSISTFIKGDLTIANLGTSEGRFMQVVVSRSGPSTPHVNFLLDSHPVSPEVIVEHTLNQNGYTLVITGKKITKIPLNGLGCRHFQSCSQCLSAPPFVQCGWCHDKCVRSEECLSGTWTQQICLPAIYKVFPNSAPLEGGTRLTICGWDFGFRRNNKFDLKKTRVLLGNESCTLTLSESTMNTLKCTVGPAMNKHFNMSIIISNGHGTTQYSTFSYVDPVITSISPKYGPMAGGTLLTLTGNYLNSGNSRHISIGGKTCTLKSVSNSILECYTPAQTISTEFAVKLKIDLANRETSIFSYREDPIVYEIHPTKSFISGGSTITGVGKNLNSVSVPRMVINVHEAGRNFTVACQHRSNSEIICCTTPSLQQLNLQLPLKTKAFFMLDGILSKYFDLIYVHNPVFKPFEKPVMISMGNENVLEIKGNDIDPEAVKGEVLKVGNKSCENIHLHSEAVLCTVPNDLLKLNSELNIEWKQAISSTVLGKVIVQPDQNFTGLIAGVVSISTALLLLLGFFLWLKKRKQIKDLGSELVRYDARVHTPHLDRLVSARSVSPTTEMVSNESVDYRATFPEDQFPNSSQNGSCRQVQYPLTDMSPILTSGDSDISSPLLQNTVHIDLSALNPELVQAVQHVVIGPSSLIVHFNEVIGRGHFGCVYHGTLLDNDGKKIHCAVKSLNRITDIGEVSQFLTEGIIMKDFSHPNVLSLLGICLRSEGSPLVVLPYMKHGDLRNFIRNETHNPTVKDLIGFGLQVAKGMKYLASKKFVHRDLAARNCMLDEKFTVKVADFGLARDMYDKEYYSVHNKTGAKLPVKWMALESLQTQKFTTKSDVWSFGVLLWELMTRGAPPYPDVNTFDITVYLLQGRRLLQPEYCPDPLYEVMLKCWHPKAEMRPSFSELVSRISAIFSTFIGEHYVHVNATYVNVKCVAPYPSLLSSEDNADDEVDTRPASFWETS
KDR (phospho-KDR, VEGF165-stimulated HUVEC cells), sequence (P35968 20-1356): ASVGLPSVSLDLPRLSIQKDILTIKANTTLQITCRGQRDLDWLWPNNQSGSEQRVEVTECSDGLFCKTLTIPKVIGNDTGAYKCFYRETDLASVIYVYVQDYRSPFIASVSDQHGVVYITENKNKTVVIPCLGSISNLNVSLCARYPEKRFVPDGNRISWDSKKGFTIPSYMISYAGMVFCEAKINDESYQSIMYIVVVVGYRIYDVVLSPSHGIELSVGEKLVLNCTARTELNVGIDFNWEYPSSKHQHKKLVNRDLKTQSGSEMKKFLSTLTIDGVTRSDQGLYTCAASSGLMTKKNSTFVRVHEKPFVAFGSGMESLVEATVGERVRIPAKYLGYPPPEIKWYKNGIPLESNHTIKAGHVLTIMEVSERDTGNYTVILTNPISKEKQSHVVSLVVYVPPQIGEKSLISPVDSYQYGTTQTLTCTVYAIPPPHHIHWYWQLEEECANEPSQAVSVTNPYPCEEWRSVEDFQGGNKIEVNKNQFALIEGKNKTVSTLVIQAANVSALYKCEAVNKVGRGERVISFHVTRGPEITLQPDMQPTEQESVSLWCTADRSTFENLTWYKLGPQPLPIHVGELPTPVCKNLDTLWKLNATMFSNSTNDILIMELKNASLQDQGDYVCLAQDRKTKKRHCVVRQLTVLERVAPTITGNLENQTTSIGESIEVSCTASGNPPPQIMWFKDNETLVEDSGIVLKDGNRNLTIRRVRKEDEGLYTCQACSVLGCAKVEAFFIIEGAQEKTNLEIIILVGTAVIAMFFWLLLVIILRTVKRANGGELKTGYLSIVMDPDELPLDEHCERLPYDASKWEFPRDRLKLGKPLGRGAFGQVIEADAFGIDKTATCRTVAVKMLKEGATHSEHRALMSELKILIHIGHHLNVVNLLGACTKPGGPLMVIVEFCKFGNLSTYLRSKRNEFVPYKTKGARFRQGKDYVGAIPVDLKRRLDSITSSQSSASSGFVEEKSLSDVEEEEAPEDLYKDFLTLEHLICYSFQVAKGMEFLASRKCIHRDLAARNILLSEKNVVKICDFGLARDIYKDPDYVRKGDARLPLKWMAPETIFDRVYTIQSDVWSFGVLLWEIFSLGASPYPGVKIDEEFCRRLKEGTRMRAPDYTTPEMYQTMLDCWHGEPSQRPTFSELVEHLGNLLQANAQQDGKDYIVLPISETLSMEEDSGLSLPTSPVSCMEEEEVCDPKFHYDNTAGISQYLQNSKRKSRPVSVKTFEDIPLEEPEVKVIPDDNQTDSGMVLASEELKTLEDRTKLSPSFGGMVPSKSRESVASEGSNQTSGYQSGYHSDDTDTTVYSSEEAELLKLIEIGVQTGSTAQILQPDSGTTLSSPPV
AXL (phospho-AXL, Gas6-stimulated A-172 glioblastoma cells), sequence (P30530 26-894): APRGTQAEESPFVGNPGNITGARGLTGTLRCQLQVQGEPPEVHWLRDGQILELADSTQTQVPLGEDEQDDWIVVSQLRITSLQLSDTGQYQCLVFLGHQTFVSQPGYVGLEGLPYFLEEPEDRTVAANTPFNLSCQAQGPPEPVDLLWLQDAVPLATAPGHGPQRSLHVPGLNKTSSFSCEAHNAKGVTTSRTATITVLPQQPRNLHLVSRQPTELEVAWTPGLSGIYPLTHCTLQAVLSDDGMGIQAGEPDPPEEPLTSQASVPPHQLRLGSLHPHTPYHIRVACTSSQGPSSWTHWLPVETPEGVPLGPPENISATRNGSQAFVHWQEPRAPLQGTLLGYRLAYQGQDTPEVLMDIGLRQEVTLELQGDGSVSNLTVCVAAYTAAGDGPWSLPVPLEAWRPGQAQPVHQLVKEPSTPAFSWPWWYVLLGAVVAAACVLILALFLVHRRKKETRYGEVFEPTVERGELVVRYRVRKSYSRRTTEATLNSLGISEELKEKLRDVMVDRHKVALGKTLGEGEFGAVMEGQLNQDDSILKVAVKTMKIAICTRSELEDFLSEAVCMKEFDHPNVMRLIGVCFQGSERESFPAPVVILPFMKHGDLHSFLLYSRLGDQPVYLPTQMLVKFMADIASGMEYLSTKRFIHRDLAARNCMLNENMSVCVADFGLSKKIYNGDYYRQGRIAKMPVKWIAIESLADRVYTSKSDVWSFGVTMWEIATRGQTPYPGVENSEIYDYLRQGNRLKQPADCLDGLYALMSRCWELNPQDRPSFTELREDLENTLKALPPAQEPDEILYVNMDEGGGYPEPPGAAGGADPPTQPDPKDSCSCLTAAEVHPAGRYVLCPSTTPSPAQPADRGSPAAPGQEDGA
Mer (phospho-Mer, MERTK-transfected 293A cells), sequence (Q12866 21-999): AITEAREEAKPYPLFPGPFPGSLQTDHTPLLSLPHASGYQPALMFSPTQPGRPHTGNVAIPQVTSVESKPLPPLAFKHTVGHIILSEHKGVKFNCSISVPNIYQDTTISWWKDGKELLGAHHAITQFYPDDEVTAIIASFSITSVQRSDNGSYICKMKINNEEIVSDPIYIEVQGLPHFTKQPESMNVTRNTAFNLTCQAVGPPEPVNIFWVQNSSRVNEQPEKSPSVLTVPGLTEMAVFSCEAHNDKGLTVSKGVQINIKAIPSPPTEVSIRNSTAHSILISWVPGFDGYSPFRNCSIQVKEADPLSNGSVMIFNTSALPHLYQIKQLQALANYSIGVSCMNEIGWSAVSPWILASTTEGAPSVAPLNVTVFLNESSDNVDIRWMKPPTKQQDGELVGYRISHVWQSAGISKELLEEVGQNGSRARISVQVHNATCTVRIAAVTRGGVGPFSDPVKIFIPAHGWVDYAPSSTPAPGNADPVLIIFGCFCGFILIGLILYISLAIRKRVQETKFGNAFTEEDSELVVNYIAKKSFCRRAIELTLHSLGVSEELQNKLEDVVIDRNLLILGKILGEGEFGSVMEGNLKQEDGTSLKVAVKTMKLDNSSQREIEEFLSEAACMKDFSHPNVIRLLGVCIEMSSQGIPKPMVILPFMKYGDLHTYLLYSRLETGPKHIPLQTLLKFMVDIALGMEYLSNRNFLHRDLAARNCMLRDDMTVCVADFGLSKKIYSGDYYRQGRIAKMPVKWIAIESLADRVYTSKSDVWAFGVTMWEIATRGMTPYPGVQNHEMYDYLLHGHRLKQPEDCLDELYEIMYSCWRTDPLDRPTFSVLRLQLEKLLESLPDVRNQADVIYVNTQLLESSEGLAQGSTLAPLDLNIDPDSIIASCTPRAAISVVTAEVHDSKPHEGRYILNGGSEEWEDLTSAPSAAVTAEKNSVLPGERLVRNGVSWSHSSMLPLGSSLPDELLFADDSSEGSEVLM

Structure (SMILES)	IC50 [1, 5] [nM]	IC50 [2] [nM]	IC50 [3] [nM]	IC50 [4] [nM]	IC50 [1] [nM]
CCn1cc(-c2ccc(F)cc2)c(=O)c(C(=O)Nc2ccc(Oc3ccnc4cc(OC)c(OC)nc34)cc2)c1C [Compound 244, N-[4-[(6,7-Dimethoxy-1,5-naphthyridin-4-yl)oxy]phenyl]-1-ethyl-5-(4-fluorophenyl)-2-methyl-4-oxopyridine-3-carboxamide]	< 100	< 100	> 300	< 100	
COc1cc2nccc(Oc3ccc(NC(=O)c4n[nH]c(C)c(-c5ccc(F)cc5)c4=O)cc3)c2nc1OC [Compound 253, N-[4-[(6,7-Dimethoxy-1,5-naphthyridin-4-yl)oxy]phenyl]-5-(4-fluorophenyl)-6-methyl-4-oxo-1H-pyridazine-3-carboxamide]	< 100	< 100	< 100	< 100	
COc1cc2nccc(Oc3ccc(NC(=O)c4c(C)ccn(-c5ccc(F)cc5C)c4=O)cc3F)c2nc1OC [Compound 311, N-[4-[(6,7-Dimethoxy-1,5-naphthyridin-4-yl)oxy]-3-fluorophenyl]-1-(4-fluoro-2-methylphenyl)-4-methyl-2-oxopyridine-3-carboxamide]	< 100	< 100	< 100	< 100	
COc1cnc2c(Oc3ccc(NC(=O)c4c(C)c(Br)c(C)n(-c5ccc(F)cc5)c4=O)cc3)ccnc2c1 [Compound 312, 5-Bromo-1-(4-fluorophenyl)-N-[4-[(7-methoxy-1,5-naphthyridin-4-yl)oxy]phenyl]-4,6-dimethyl-2-oxopyridine-3-carboxamide]	< 100	< 100	100 to 300	< 100	
COc1cc2nccc(Oc3ccc(NC(=O)c4c(C)c(Br)c(C)n(-c5ccc(F)cc5)c4=O)cc3)c2nc1OC [Compound 313, 5-Bromo-N-[4-[(6,7-dimethoxy-1,5-naphthyridin-4-yl)oxy]phenyl]-1-(4-fluorophenyl)-4,6-dimethyl-2-oxopyridine-3-carboxamide]	< 100	< 100	< 100	< 100	
COc1cnc2c(Oc3ccc(NC(=O)c4c(C)c(Br)c(C)n(-c5ccc(F)cc5)c4=O)cc3F)ccnc2c1 [Compound 314, 5-Bromo-N-[3-fluoro-4-[(7-methoxy-1,5-naphthyridin-4-yl)oxy]phenyl]-1-(4-fluorophenyl)-4,6-dimethyl-2-oxopyridine-3-carboxamide]	< 100	< 100	< 100	< 100	
COc1cc2nccc(Oc3ccc(NC(=O)c4c(C)c(C)c(C)n(-c5ccc(F)cc5)c4=O)cc3)c2nc1OC [Compound 315, N-[4-[(6,7-Dimethoxy-1,5-naphthyridin-4-yl)oxy]phenyl]-1-(4-fluorophenyl)-4,5,6-trimethyl-2-oxopyridine-3-carboxamide]	< 100	< 100	< 100	< 100	
COc1cnc2c(Oc3ccc(NC(=O)c4c(C)c(C)c(C)n(-c5ccc(F)cc5)c4=O)cc3F)ccnc2c1 [Compound 316, N-[3-Fluoro-4-[(7-methoxy-1,5-naphthyridin-4-yl)oxy]phenyl]-1-(4-fluorophenyl)-4,5,6-trimethyl-2-oxopyridine-3-carboxamide]	< 100	< 100	< 100	< 100	
COc1cnc2c(Oc3ccc(NC(=O)c4c(C)c(C)c(C)n(-c5ccc(F)cc5)c4=O)cc3)ccnc2c1 [Compound 317, 1-(4-Fluorophenyl)-N-[4-[(7-methoxy-1,5-naphthyridin-4-yl)oxy]phenyl]-4,5,6-trimethyl-2-oxopyridine-3-carboxamide]	< 100	< 100	< 100	< 100	
COc1cc2nccc(Oc3ccc(NC(=O)c4c(C)c(C(N)=O)c(C)n(-c5ccc(F)cc5)c4=O)cc3F)c2nc1OC [Compound 318, 5-N-[4-[(6,7-Dimethoxy-1,5-naphthyridin-4-yl)oxy]-3-fluorophenyl]-1-(4-fluorophenyl)-2,4-dimethyl-6-oxopyridine-3,5-dicarboxamide]	< 100	< 100	> 300	< 100	
COc1cc2nccc(Oc3ccc(NC(=O)c4c(C)c(C(N)=O)c(C)n(-c5ccc(F)cc5)c4=O)cc3)c2nc1OC [Compound 319, 5-N-[4-[(6,7-Dimethoxy-1,5-naphthyridin-4-yl)oxy]phenyl]-1-(4-fluorophenyl)-2,4-dimethyl-6-oxopyridine-3,5-dicarboxamide]	< 100	< 100	> 300	< 100	
COc1cc2nccc(Oc3ccc(NC(=O)c4c(C)c(C#N)c(C)n(-c5ccc(F)cc5)c4=O)cc3)c2nc1OC [Compound 320, 5-Cyano-N-[4-[(6,7-dimethoxy-1,5-naphthyridin-4-yl)oxy]phenyl]-1-(4-fluorophenyl)-4,6-dimethyl-2-oxopyridine-3-carboxamide]	< 100	< 100	> 300	< 100	
COc1cc2nccc(Oc3ccc(NC(=O)c4c(C)c(C(C)=O)c(C)n(-c5ccc(F)cc5)c4=O)cc3F)c2nc1OC [Compound 321, 5-Acetyl-N-[4-[(6,7-dimethoxy-1,5-naphthyridin-4-yl)oxy]-3-fluorophenyl]-1-(4-fluorophenyl)-4,6-dimethyl-2-oxopyridine-3-carboxamide]		< 100	100 to 300	< 100	< 100
COc1cc2nccc(Oc3ccc(NC(=O)c4c(C)c(C(C)=O)c(C)n(-c5ccc(F)cc5)c4=O)cc3)c2nc1OC [Compound 322, 5-Acetyl-N-[4-[(6,7-dimethoxy-1,5-naphthyridin-4-yl)oxy]phenyl]-1-(4-fluorophenyl)-4,6-dimethyl-2-oxopyridine-3-carboxamide]	< 100	< 100	100 to 300	< 100	
COc1cnc2c(Oc3ccc(NC(=O)c4c(C)c(C(C)=O)c(C)n(-c5ccc(F)cc5)c4=O)cc3F)ccnc2c1 [Compound 323, 5-Acetyl-N-[3-fluoro-4-[(7-methoxy-1,5-naphthyridin-4-yl)oxy]phenyl]-1-(4-fluorophenyl)-4,6-dimethyl-2-oxopyridine-3-carboxamide]	< 100	< 100	100 to 300	< 100	
COc1cc2nccc(Oc3ccc(NC(=O)c4c(C)c(F)c(C)n(-c5ccc(F)cc5)c4=O)cc3F)c2nc1OC [Compound 324, N-[4-[(6,7-Dimethoxy-1,5-naphthyridin-4-yl)oxy]-3-fluorophenyl]-5-fluoro-1-(4-fluorophenyl)-4,6-dimethyl-2-oxopyridine-3-carboxamide]	< 100	< 100	< 100	< 100	
COc1cc2nccc(Oc3ccc(NC(=O)c4c(C)c(F)c(C)n(-c5ccc(F)cc5)c4=O)cc3)c2nc1OC [Compound 325, N-[4-[(6,7-Dimethoxy-1,5-naphthyridin-4-yl)oxy]phenyl]-5-fluoro-1-(4-fluorophenyl)-4,6-dimethyl-2-oxopyridine-3-carboxamide]	< 100	< 100	< 100	< 100	
